Test results from patent US11415493B2, “Detection of cells in a liquid sample” (DELTA INSTRUMENTS B.V., priority 2016, dated 2022).
“Also recorded” adds a separate entry of the source. Read-outs that look alike come from different tables or passages of the source.

Experiments:
cells = conditions: cited from earlier work
E. coli = assay: Staining E. coli culture with different nucleic acid dyes, flow cytometer counts (FL1FL2 region); format: cell-based, Escherichia coli
Experimental: First, an experiment was performed to confirm that bacterial counts obtained on the flow cytometer using GelGreen™ did correlate with traditional plate counts. For this, the Petrifilm method was selected (Standard Methods for Examination of Dairy Products 17th Edition 2004. Edited by H. M. Wehr and J. R. Frank. American Public Health Association, 800 I Street, NW, Washington D.C. 200001. Chapter 6.040), rather than a poured agar plate method, because of ease of use. Escherichia coil (E. coli) cultures were grown at 36° C. in Trypticase Soy Broth (TSB) in a culture tube. A staining composition was prepared as follows: The nucleic acid dye GelGreen™ (from Biotium) was diluted to 1× from the 10,000× commercially available stock, into Tris-buffered saline (100 mM Trizma base, 100 mM Trizma HCl, 150 mM NaCl, pH 8.5), which was preheated to 50° C. The used dilution of 1:10,000 of the GelGreen™ is in accordance with the manufacturer's recommendation for using GelGreen™ for the purpose it was intended for, namely staining DNA in an agarose gel. This is the dilution of GelGreen™ used in all the examples herein. The E. coli culture was removed from the 36° C. incubator and a small volume was diluted 1:100 into the preheated staining composition and incubated for approximately 4.5 min at 50° C. The stained E. coli was analyzed on the flow cytometer and the FL1 (Bandpass 531 nm (519-551)) and FL2 (Long pass >550 nm) fluorescence channels were used to identify the stained bacteria (FIGS. 1A and 1C). A rectangular region was defined around the positively stained cells identified as live cells in the FL1 versus FL2 2-dimensional correlation plot (FIG. 1B). A count per mL of the E. coli was obtained from the flow cytometry analysis. The E. coli culture was then diluted in TSB to obtain 3 different concentrations (1:10, 1:100 and 1:1000, respectively). The E. coli cultures were kept at 4° C. to minimize further growth until analysis. Each dilution of E. coli was stained with the GelGreen™ reagent, analyzed on the flow cytometer and counts for each dilution were obtained. Each E. coli culture was also appropriately diluted in Butterfield's PBS and 1 mL of the appropriately diluted culture was plated on Petrifilms in duplicate. The Petrifilms were placed in a 30° C. incubator, removed after 48 hrs and the colonies on each Petrifilm were counted using an automated colony counter. An average CFU/mL for each E. coli dilution was obtained. The Log of the flow cytometer bacterial counts using GelGreen™ was plotted versus the Log CFU counts from the Petrifilm (FIG. 2).
To show where the bacteria in the FL1 and FL2 signal plots can be expected, bacteria were first counted in the staining composition without adding any milk. A culture of E. coli were grown at 36° C. in Trypticase Soy Broth (TSB) in a culture tube. The nucleic acid dye GelGreen™ was diluted into Tris-buffered saline, at approximately pH 8.5, which was preheated to 50° C. The E. coli culture was removed from the 36° C. incubator and a small volume was diluted 1:100 into the preheated staining composition and incubated for approximately 4.5 min at 50° C. The stained E. coli was analyzed on the flow cytometer and the FL1 and FL2 fluorescence channels were used to identify the stained bacteria (FIG. 3A).
A culture of E. coli was grown at 36° C. in Trypticase Soy Broth (TSB), stained with GelGreen™ and counted on the flow cytometer (FIG. 5) as described in example 2. The E. coli culture was then kept at 4° C. until stained with other nucleic acid dyes. The nucleic acid dyes TOTO®-1 and SYBR® Safe (both from Thermo Fisher Scientific) were selected as alternatives. […] Both dyes have similar spectral properties to GelGreen™ and were diluted in Tris-buffered saline using the same dilution factor as GelGreen™. […]

bacteria in milk samples = assay: Individual bacterial count (IBC) in milk samples with different cell-impermeant dyes, flow cytometer; format: cell-based
Experimental: The nucleic acid dyes, Evagreen®, SYTOX® Green and Propidium iodide where tested against GelGreen™ (the reference method). […] Nucleic acid dyes Evagreen®, SYTOX® Green and propidium iodide were tested using the same staining and incubation conditions as for the reference method only differing in the type of dye comprised in the staining composition. Evagreen® was used at a concentration of 1.25 μM in the staining composition. SYTOX® Green and Propidium iodide were used at a concentration of 5 μM in the staining composition. Three different types of milk were used: Locally obtained raw bulk tank milk from a farm and dairy plant where collected at a local farmer. This milk is referred to as fresh raw milk and is not older than 24 hours. 24 hour and 48 hour old milk were obtained from a dairy plant. […] For this purpose E. coli was grown overnight (approx. 15 h) in TSB at 32° C. The dead bacterial where obtained by heating the grown E. coli at 110° C. for 10 minutes. An amount of 200 μl of E. coli (living or dead/damaged) is added to 45 ml fresh raw bulk milk. Both living and dead are from the same culture tube and exactly the same amount is put in the 45 ml Fresh raw milk. All the milk samples are kept at 4° C. until analyzed. […] Finally, the samples were analyzed on the flow cytometer and the fluorescent signals from the bacteria were detected and a count per unit volume was determined. […]

bacteria in raw milk = assay: Initial staining of bacteria in raw milk diluted in saline buffer, flow cytometer; format: cell-based
Experimental: During initial work, raw milk was diluted in a buffer solution and the cell permeant nucleic acid stain SYTO® 9 was used to stain the bacteria contained in the milk. A flow cytometer, equipped with a 488 nm laser as the light source, forward and right angle scatter detectors, and three fluorescence detectors, was used to detect the fluorescence from labeled bacteria. The three fluorescence detectors in the flow cytometer in that initial experiment had the following optical filters; 527 nm Bandpass (FL1), 590 nm Bandpass (FL2), and a 630 nm Longpass (FL3). The flow cytometer utilizes a system that provides volumetric measurement of the sample analyzed and yields a count per unit volume. […] The conclusion was that the background fluorescent signal from the various components in raw milk, and the non-specific binding of the dye to these components, dominated the signal such that it was impossible to detect any bacteria-related fluorescence. Additionally the large scatter signals detected in flow cytometry from the milk fat globules, casein micelles and other components in the milk, prevented the use of forward and right angle scatter in the detection of bacteria. To prevent the background signal, the inventors of the present invention made an attempt to minimize such interference. […]

CCCN1C=C/C(=C\c2sc3ccccc3[n+]2C)c2ccccc21 [SYBR® Safe]
cell membrane permeability (cells; property stated for the dye): readily crosses the membrane of cells
staining of E. coli (E. coli; Tris-buffered saline pH 8.5, room temperature (23° C.)): does not need heating to stain E. coli

CC[N+](C)(CC)CCC[n+]1c(-c2ccccc2)c2cc(N)ccc2c2ccc(N)cc21.[I-].[I-] [Propidium iodide]
cell membrane permeability (cells): only penetrates cell membranes of dead cells
usefulness as alternative dye for GelGreen in the method (bacteria in milk samples; conclusion over all milk samples): does not work
IBC counts (bacteria in milk samples; milk samples except milk spiked with E. coli and cooked, 68° C., 1 min, pH 10.6): Almost no IBC counts

SYTO® 9
fluorescence signals of raw milk with spiked bacteria (bacteria in raw milk): identical to the fluorescence detected in raw milk without spiked bacteria

CN1/C(=C/c2cc[n+](CCC[N+](C)(C)CCC[N+](C)(C)CCC[n+]3ccc(/C=C4\Sc5ccccc5N4C)c4ccccc43)c3ccccc23)Sc2ccccc21.[I-].[I-].[I-].[I-] [TOTO®-1]
cell membrane permeability (cells; property stated for the dye): cell impermeant
staining of E. coli (E. coli; Tris-buffered saline pH 8.5, 50° C., approximately 4.5 min): minimal staining; also recorded: does not stain E. coli
